Data from US20070213311A1, “Modulators of 11-beta hydroxyl steroid dehydrogenase type 1, pharmaceutical compositions thereof, and methods of using the same” (priority 2006, published 2007).

How the values were obtained:
[1] = biological target: T1, 11βHSD1 in the eye (Homo sapiens, UniProt P28845); settings: healthy volunteers, after seven days of carbenoxolone treatment; cited from earlier work
T1 construct: 11βHSD1 has been localized to NPE cells; host or cells: eye of healthy volunteers, in vivo
T1 sequence (P28845 whole entry): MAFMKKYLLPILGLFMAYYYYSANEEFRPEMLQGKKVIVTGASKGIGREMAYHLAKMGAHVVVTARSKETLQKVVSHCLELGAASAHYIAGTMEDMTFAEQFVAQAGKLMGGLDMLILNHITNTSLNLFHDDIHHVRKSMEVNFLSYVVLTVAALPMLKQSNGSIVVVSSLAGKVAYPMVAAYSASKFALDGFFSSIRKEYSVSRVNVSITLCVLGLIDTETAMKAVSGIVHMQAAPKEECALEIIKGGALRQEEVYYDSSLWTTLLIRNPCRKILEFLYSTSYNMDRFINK

[2] = biological target: T2, full-length human 11βHSD1 (Homo sapiens, UniProt P28845); test: Enzymatic assay of 11βHSD1 (Scintillation Proximity Assay, clarified lysates of HEK-293 transfectants); format: biochemical; settings: SPA, 25 nM 3H-cortisone, 400 μM NADPH, 37° C. for one hour
T2 construct: made in house; host or cells: HEK-293 transient transfectants; clarified lysate, not purified
T2 sequence (P28845 whole entry): as above
Procedure: Enzymatic Assay of 11βHSD1
All in vitro assays were performed with clarified lysates as the source of 11βHSD1 activity. HEK-293 transient transfectants expressing an epitope-tagged version of full-length human 11βHSD1 were harvested by centrifugation. Roughly 2×10^7 cells were resuspended in 40 mL of lysis buffer (25 mM Tris-HCl, pH 7.5, 0.1 M NaCl, 1 mM MgCl2 and 250 mM sucrose) and lysed in a microfluidizer. Lysates were clarified by centrifugation and the supernatants were aliquoted and frozen.
Inhibition of 11βHSD1 by test compounds was assessed in vitro by a Scintillation Proximity Assay (SPA). Dry test compounds were dissolved at 5 mM in DMSO. These were diluted in DMSO to suitable concentrations for the SPA assay. 0.8 μL of 2-fold serial dilutions of compounds were dotted on 384 well plates in DMSO such that 3 logs of compound concentration were covered. 20 μL of clarified lysate was added to each well. Reactions were initiated by addition of 20 μL of substrate-cofactor mix in assay buffer (25 mM Tris-HCl, pH 7.5, 0.1 M NaCl, 1 mM MgCl2) to final concentrations of 400 μM NADPH, 25 nM ^3H-cortisone and 0.007% Triton X-100. Plates were incubated at 37° C. for one hour. […] Quenched plates were incubated for a minimum of 30 minutes at RT prior to reading on a Topcount scintillation counter. […]

| SMILES | IOP was reduced by [1] | IC50 [2] |
| --- | --- | --- |
| CC1(C)[C@@H](OC(=O)CCC(=O)O)CC[C@]2(C)[C@H]3C(=O)C=C4[C@@H]5C[C@@](C)(C(=O)O)CC[C@]5(C)CC[C@@]4(C)[C@]3(C)CC[C@@H]12 [carbenoxolone] | 18% |  |
| O=C1OC2(CCN(C(=O)C(O)c3ccc(Br)cc3F)C2)c2ccccc21 (centres unmarked) [Example 1, 1′-[(4-Bromo-2-fluorophenyl)(hydroxy)acetyl]-3H-spiro[2-benzofuran-1,3′-pyrrolidin]-3-one] |  | < 1000 nM |
